Measured values published in patent publication US20240158446A1, “CYCLIC COMPOUND HAVING SELECTIVE INHIBITORY ACTION ON KRAS OVER HRAS AND NRAS” (CHUGAI SEIYAKU KABUSHIKI KAISHA, priority 2021, published 2024).
Read-outs that look alike come from different tables or passages of the source. *1 amine or outer side, *2 acyl side, *3 side chain or, on linkers, in order; H or OH if unused. Where a SMILES comes first, the peptide text is derived from it. Bridges are numbered along the chain shown (N, C = ends). [ ]: non-standard residue; d: D form. The star is where a group is joined. hPhe(3,5-F2-4-CF3) = N[C@@H](CCc1cc(F)c(C(F)(F)F)c(F)c1)C(=O)O; hPhe(3-Cl-4-CF3) = N[C@@H](CCc1ccc(C(F)(F)F)c(Cl)c1)C(=O)O; NPrPhe(4-CF3) = CCCN[C@@H](Cc1ccc(C(F)(F)F)cc1)C(=O)O; NPrPhe(4-Me) = CCCN[C@@H](Cc1ccc(C)cc1)C(=O)O; X14 = CN([C@@H](CCCCC=[*:3])C(=O)[*:2])[*:1]; dαMeAlg = C[C@](CC=[*:3])(N[*:1])C(=O)[*:2]; NMeGly(cPent) = CN[C@H](C(=O)O)C1CCCC1; X44 = CC1(C)CN([*:1])[C@@H]1C(=O)[*:2]; Hyp = O=C(O)[C@@H]1C[C@@H](O)CN1; NMeD = CN[C@@H](CC(=O)O)C(=O)O; NMeL = CN[C@@H](CC(C)C)C(=O)O; Pip = O=C(O)[C@@H]1CCCCN1; Morpholide = C1CN(*)CCO1; Ac5c = NC1(C(=O)O)CCCC1; Aze = O=C(O)[C@@H]1CCN1; Ac4c = NC1(C(=O)O)CCC1; Sar = CNCC(=O)O

Columns and labels:
[1] = target: GDP-bound KRAS wild-type protein (Homo sapiens, UniProt P01116); test: Binding to KRAS by surface plasmon resonance (SPR), Single Cycle Kinetics; conditions: SPR, Single Cycle Kinetics, GDP-bound KRAS wild-type protein; read-out: KRAS KD
[2] = system: human lung cancer strain NCI-H441;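 note: cell proliferation inhibition after four days measured by CellTiter-Glo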
[3] = target: GDP-bound NRAS wild-type protein (Homo sapiens, UniProt P01111); test: Binding to NRAS by surface plasmon resonance (SPR), Single Cycle Kinetics; conditions: for NRAS/KRAS (ratio of KD value with respect to GDP-bound NRAS wild-type protein to KD value with respect to KRAS): SPR KD ratio NRAS/KRAS, class symbols
[4] = target: GDP-bound HRAS wild-type protein (Homo sapiens, UniProt P01112); test: Binding to HRAS by surface plasmon resonance (SPR), Single Cycle Kinetics; conditions: for HRAS/KRAS (ratio of KD value with respect to GDP-bound HRAS wild-type protein to KD value with respect to KRAS): SPR KD ratio HRAS/KRAS, class symbols
[5] = SPR, GDP-bound NRAS wild-type protein vs GDP-bound KRAS wild-type protein
[6] = SPR, GDP-bound HRAS wild-type protein vs GDP-bound KRAS wild-type protein

GDP-bound HRAS wild-type protein, sequence (P01112 whole entry): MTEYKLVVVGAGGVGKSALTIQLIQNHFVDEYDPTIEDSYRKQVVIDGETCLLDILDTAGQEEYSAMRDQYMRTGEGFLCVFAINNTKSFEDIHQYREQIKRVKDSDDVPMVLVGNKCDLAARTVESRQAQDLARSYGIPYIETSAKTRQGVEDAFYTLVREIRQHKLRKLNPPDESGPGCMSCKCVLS
GDP-bound NRAS wild-type protein, sequence (P01111 whole entry): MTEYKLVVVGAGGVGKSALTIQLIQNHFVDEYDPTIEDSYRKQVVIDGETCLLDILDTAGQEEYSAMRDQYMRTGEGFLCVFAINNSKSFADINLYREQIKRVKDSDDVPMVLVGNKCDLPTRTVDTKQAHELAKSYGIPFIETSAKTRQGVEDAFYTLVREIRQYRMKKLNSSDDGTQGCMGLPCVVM
GDP-bound KRAS wild-type protein, sequence (P01116 whole entry): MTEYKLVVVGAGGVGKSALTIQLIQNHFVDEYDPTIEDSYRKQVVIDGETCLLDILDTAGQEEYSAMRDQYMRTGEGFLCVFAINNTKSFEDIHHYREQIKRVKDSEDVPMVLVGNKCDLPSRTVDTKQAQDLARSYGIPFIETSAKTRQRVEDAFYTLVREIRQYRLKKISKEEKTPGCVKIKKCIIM

SMILES | IC50 [2] | NRAS/KRAS (ratio of KD value for NRAS to KD value for KRAS) [3, 5] | HRAS/KRAS (ratio of KD value for HRAS to KD value for KRAS) [4, 6] | other results
CCCCCC[C@H]1C(=O)N[C@@H]([C@@H](C)CC)C(=O)N(C)CC(=O)N(C)[C@H]2C/C=C\CCN(C2=O)[C@@H](Cc2ccc(C(F)(F)F)cc2)C(=O)N(C)CC(=O)N[C@@H](CCc2cc(F)c(C(F)(F)F)c(F)c2)C(=O)N2C[C@H](OCC)C[C@H]2C(=O)NC2(CCC2)C(=O)N(C)[C@@H](C(CC)CC)C(=O)N(C)[C@H](C(=O)N(C)C)CC(=O)N1C [PP1202] | 24.1 nM |  |  | Kd [1]: 0.4 nM
CCCN1C(=O)[C@@H]2CCN2C(=O)[C@H]2N(CC2(C)C)C(=O)[C@H]([C@@H](C)CC)NC(=O)[C@H](CC(C)C)N(C)C(=O)C[C@@H](C(=O)N2CCOCC2)N(C)C(=O)[C@H](C2CCCC2)N(C)C(=O)C2(CCCC2)NC(=O)[C@@H]2CCCN2C(=O)[C@H](CCc2ccc(C(F)(F)F)c(Cl)c2)NC(=O)CN(C)C(=O)[C@@H]1Cc1ccc(C(F)(F)F)cc1 [PP0277] ([NMeL]I[X44][Aze][NPrPhe(4-CF3)][Sar][hPhe(3-Cl-4-CF3)]P[Ac5c][NMeGly(cPent)][NMeD]-Morpholide; lactam N-11) | 6.7 nM | C (A compound having a KD ratio of 0.1 or more and less than 3 is denoted as C) | C (A compound having a KD ratio of 0.1 or more and less than 3 is denoted as C) | 
CCC[C@H]1C(=O)N[C@@H]([C@@H](C)CC)C(=O)N(C2CC2)CC(=O)N(C)[C@H]2C/C=C\CCN(C2=O)[C@@H](Cc2ccc(C)cc2)C(=O)N(C)CC(=O)N[C@@H](CCc2cc(F)c(C(F)(F)F)c(F)c2)C(=O)N2C[C@H](OCC)C[C@H]2C(=O)N(C)C2(CCC2)C(=O)N(C)[C@@H](C2CCCC2)C(=O)N(C)[C@H](C(=O)N2CCCCC2)CC(=O)N1C [PP3111, (2S,8S,12R,14S,20S,23S,27S,30S,36S,38Z)-20-cyclopentyl-32-cyclopropyl-8-[2-[3,5-difluoro-4-(trifluoromethyl)phenyl]ethyl]-12-ethoxy-4,16,19,22,26,35-hexamethyl-30-[(1S)-1-methylpropyl]-23-(piperidine-1-carbonyl)-27-propyl-2-(p-tolylmethyl)spiro[1,4,7,1016192226293235-undecazatricyclo[34.5.1.0^10,14]dotetracont-38-ene-17,1′-cyclobutane]-3,6,9,15,18,21,25,28,31,34,42-undecone] |  | A (a compound having 10 or more and less than 20 is denoted as A) | A (a compound having 10 or more and less than 20 is denoted as A) | ratio of the KD value with respect to GDP-bound NRAS wild-type protein to the KD value with respect to KRAS ([3]; SPR, KD(NRAS)/KD(KRAS)): A (a compound having 10 or more and less than 20 is denoted as A); ratio of the KD value with respect to GDP-bound HRAS wild-type protein to the KD value with respect to KRAS ([4]; SPR, KD(HRAS)/KD(KRAS)): A (a compound having 10 or more and less than 20 is denoted as A); IC50 ([2]; read-out: NCI-H441 cell proliferation inhibitory activity, 50% proliferation inhibitory concentration (IC50 value), NCI-H441, four days, CellTiter-Glo): 17.8 nM
CCCN1C(=O)CN(C)C(=O)[C@@H]2CCN2C(=O)[C@H]([C@@H](C)CC)NC(=O)[C@H](CC(C)C)N(C)C(=O)C[C@@H](C(=O)N2CCOCC2)NC(=O)[C@H](C2CCCC2)N(C)C(=O)C2(CCC2)NC(=O)[C@@H]2CCCN2C(=O)[C@H](CCc2ccc(C(F)(F)F)c(Cl)c2)NC(=O)CN(C)C(=O)[C@@H]1Cc1ccc(C(F)(F)F)cc1 [PP0338] ([NMeL]I[Aze][Sar][NPrPhe(4-CF3)][Sar][hPhe(3-Cl-4-CF3)]P[Ac4c][NMeGly(cPent)]D-Morpholide; lactam N-11) | 296 nM | B (a compound having 3 or more and less than 10 is denoted as B) | B (a compound having 3 or more and less than 10 is denoted as B) | 
CCO[C@@H]1C[C@H]2C(=O)NC3(CCC3)C(=O)N(C)[C@@H](C3CCCC3)C(=O)N(C)[C@H](C(=O)N3CCOCC3)CC(=O)N(C)[C@@H](CC(C)C)C(=O)N[C@@H]([C@@H](C)CC)C(=O)N(C)CC(=O)N(C)[C@H]3CCCCCN(C3=O)[C@@H](Cc3ccc(F)c(F)c3)C(=O)N(C)CC(=O)N[C@@H](CCc3cc(F)c(C(F)(F)F)c(F)c3)C(=O)N2C1 [PP0917] | 25.2 nM | B (a compound having 3 or more and less than 10 is denoted as B) | B (a compound having 3 or more and less than 10 is denoted as B) | 
CC[C@H](C)[C@@H]1NC(=O)[C@H](CC(C)C)N(C)C(=O)C[C@@H](C(=O)N2CCOCC2)N(C)C(=O)[C@H](C2CCCC2)N(C)C(=O)C2(CCCC2)NC(=O)[C@@H]2CCCN2C(=O)[C@H](CCc2ccc(C(F)(F)F)c(Cl)c2)NC(=O)CN(C)C(=O)[C@H](Cc2ccccc2)N2CCCCC[C@@H](C2=O)N(C)C(=O)CN(C)C1=O [PP0611] | 88.9 nM |  |  | NRAS/KRAS (ratio of KD value with respect to NRAS to KD value with respect to KRAS) [3, 5]: B (a compound having 3 or more and less than 10 is denoted as B); HRAS/KRAS (ratio of KD value with respect to HRAS to KD value with respect to KRAS) [4, 6]: B (a compound having 3 or more and less than 10 is denoted as B)
CCC[C@H]1C(=O)N[C@@H]([C@@H](C)CC)C(=O)N(C)CC(=O)N(C)[C@H]2C/C=C\CCN(C2=O)[C@@H](CC2CCCCC2)C(=O)N(C)CC(=O)N[C@@H](CCc2ccc(C(F)(F)F)c(OC)c2)C(=O)N2C[C@H](OCC)C[C@H]2C(=O)N(C)C2(CCC2)C(=O)N(C)[C@@H](C(CC)CC)C(=O)N(C)[C@H](C(=O)N(C)C)CC(=O)N1C [PP2333] | 44.7 nM | A (a compound having 10 or more and less than 20 is denoted as A) | A (a compound having 10 or more and less than 20 is denoted as A) | 
CCCN1C(=O)[C@@H]2CCN2C(=O)[C@@H]2CCCCN2C(=O)[C@H]([C@@H](C)CC)NC(=O)[C@H](CC(C)C)N(C)C(=O)C[C@@H](C(=O)N2CCOCC2)N(C)C(=O)[C@H](C2CCCC2)N(C)C(=O)C2(CCCC2)NC(=O)[C@@H]2CCCN2C(=O)[C@H](CCc2ccc(C(F)(F)F)c(Cl)c2)NC(=O)CN(C)C(=O)[C@@H]1Cc1ccc(C)cc1 [PP0070] ([NMeL]I[Pip][Aze][NPrPhe(4-Me)][Sar][hPhe(3-Cl-4-CF3)]P[Ac5c][NMeGly(cPent)][NMeD]-Morpholide; lactam N-11) | 2.1 nM | C (A compound having a KD ratio of 0.1 or more and less than 3 is denoted as C) | B (a compound having 3 or more and less than 10 is denoted as B) | 
CCCN1C(=O)CN(C)C(=O)CN(C)C(=O)[C@H]([C@@H](C)CC)NC(=O)[C@@H]2CCCCC=CC[C@@](C)(NC(=O)[C@@H]3C[C@@H](OCC)CN3C(=O)[C@H](CCc3cc(F)c(C(F)(F)F)c(F)c3)NC(=O)CN(C)C(=O)[C@@H]1Cc1ccc(C(F)(F)F)cc1)C(=O)N(C)[C@@H](C1CCCC1)C(=O)N(C)[C@H](C(=O)N1CCOCC1)CC(=O)N2C [PP0902] ([X14]I[Sar][Sar][NPrPhe(4-CF3)][Sar][hPhe(3,5-F2-4-CF3)][Hyp](Et)[dαMeAlg][NMeGly(cPent)][NMeD]-Morpholide; staple 1-9; lactam N-11) | 72.6 nM | A (a compound having 10 or more and less than 20 is denoted as A) | B (a compound having 3 or more and less than 10 is denoted as B) | 
CCO[C@@H]1C[C@H]2C(=O)NC3(CCC3)C(=O)N(C)[C@@H](C3CCCC3)C(=O)N(C)[C@H](C(=O)N(C)C)CC(=O)N(C)[C@@H](CC)C(=O)N[C@@H]([C@@H](C)CC)C(=O)N(C)CC(=O)N(C)[C@H]3CCCCN(C3=O)[C@@H](Cc3ccc(C(F)(F)F)cc3)C(=O)N(C)CC(=O)N[C@@H](CCc3ccc4ccsc4c3)C(=O)N2C1 [PP0888] | 25.6 nM | C (A compound having a KD ratio of 0.1 or more and less than 3 is denoted as C) | B (a compound having 3 or more and less than 10 is denoted as B) | 
CCCC[C@H]1C(=O)N[C@@H]([C@@H](C)CC)C(=O)N(C)CC(=O)N(C)[C@H]2C/C=C\CCN(C2=O)[C@@H](Cc2ccc(C)cc2)C(=O)N(C)CC(=O)N[C@@H](CCc2cc(F)c(C(F)(F)F)c(F)c2)C(=O)N2C[C@H](OCC)C[C@H]2C(=O)NC2(CC(C)(C)C2)C(=O)N(C)[C@@H](C2CCCC2)C(=O)N(C)[C@H](C(=O)N(C)C)CC(=O)N1C [PP2800] | 7.9 nM |  |  | NRAS/KRAS (ratio of KD value with respect to GDP-bound NRAS wild-type protein to KD value with respect to KRAS) [3]: A (a compound having 10 or more and less than 20 is denoted as A); HRAS/KRAS (ratio of KD value with respect to GDP-bound HRAS wild-type protein to KD value with respect to KRAS) [4]: A (a compound having 10 or more and less than 20 is denoted as A)
CCC(CC)[C@H]1C(=O)N(C)[C@H](C(=O)N(C)C)CC(=O)N(C)[C@@H](COC)C(=O)N[C@@H]([C@@H](C)CC)C(=O)N(C)CC(=O)N(C)[C@H]2C/C=C\CCN(C2=O)[C@@H](Cc2ccc(C)cc2)C(=O)N(C)CC(=O)N[C@@H](CCc2ccc(Cl)c(Cl)c2)C(=O)N2CC3(CC3)C[C@H]2C(=O)N(C)C2(CC(C)(C)C2)C(=O)N1C [PP2820] | 62.4 nM |  |  | NRAS/KRAS (ratio of KD value with respect to GDP-bound NRAS wild-type protein to KD value with respect to KRAS) [3]: AA (a compound having 20 or more is denoted as AA); HRAS/KRAS (ratio of KD value with respect to GDP-bound HRAS wild-type protein to KD value with respect to KRAS) [4]: A (a compound having 10 or more and less than 20 is denoted as A)
